# Measurements as given in publication PMC4657727 (Biochemistry, 2013).
# T1: A3+B3 (heteromeric CNGA3 + CNGB3) channels (Homo sapiens, UniProt Q16281+Q9NQW8)
# T1 sequence (Q16281 1-694): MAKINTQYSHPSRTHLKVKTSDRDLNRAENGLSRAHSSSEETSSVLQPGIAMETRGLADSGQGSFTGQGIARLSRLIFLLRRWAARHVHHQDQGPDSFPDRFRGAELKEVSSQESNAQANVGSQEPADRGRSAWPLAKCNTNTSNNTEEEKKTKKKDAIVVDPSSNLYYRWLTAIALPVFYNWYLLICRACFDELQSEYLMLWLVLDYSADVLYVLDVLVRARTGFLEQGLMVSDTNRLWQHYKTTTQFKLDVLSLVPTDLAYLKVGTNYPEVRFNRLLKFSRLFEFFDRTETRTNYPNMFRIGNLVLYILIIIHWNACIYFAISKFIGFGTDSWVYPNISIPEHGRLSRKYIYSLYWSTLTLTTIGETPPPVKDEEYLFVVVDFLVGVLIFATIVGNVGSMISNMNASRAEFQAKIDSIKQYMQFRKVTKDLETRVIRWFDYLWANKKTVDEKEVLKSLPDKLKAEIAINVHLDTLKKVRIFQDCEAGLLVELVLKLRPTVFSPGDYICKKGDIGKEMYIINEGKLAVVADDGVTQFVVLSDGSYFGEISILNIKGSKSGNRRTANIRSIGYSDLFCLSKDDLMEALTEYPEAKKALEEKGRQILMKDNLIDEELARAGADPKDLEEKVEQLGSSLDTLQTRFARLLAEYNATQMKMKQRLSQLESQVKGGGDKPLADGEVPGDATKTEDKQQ
# T1 sequence (Q9NQW8 1-809): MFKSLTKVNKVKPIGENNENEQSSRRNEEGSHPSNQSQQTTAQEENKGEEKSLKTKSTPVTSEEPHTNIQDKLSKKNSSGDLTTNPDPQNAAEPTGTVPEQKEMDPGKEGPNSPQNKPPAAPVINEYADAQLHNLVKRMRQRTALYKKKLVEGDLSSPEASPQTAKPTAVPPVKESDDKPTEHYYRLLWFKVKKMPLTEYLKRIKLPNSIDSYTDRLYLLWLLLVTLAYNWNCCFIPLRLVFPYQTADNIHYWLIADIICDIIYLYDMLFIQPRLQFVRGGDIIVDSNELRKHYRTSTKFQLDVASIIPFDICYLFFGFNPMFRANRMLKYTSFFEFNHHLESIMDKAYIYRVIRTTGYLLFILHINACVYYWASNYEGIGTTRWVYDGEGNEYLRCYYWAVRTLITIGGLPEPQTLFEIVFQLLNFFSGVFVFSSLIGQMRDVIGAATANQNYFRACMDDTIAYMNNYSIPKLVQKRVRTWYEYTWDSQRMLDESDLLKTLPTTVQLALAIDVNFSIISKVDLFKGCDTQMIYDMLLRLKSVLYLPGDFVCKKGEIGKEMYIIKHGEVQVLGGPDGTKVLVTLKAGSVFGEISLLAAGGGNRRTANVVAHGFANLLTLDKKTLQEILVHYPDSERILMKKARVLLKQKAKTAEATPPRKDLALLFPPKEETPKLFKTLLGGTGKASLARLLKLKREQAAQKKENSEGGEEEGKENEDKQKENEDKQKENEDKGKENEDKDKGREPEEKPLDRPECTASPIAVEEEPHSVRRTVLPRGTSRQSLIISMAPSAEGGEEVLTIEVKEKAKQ
# T2: A3 (homomeric CNGA3) channels (Homo sapiens, UniProt Q16281)
# T2 sequence (Q16281 1-694): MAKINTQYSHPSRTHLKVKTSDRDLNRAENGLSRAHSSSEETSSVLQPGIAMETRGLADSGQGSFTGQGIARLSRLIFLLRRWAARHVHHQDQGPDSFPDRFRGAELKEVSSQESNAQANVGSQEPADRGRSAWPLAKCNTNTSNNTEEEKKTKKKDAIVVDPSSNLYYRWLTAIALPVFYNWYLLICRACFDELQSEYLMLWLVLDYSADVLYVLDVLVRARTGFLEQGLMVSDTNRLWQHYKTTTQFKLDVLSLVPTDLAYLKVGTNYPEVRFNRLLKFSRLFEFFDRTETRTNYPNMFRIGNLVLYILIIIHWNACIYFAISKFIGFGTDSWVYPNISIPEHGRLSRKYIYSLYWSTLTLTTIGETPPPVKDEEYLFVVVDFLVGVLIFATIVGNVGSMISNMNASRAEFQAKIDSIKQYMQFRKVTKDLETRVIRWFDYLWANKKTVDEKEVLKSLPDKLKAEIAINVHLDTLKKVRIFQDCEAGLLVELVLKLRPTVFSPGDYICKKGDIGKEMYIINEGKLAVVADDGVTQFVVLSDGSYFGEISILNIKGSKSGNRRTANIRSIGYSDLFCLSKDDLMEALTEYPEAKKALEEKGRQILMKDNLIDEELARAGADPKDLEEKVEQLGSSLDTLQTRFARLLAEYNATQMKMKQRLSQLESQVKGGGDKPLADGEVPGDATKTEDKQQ
# Legend:
# [1] = target: T1, A3+B3 (heteromeric CNGA3 + CNGB3) channels; test: inside-out patch clamp, macroscopic current dose-response, Hill fit; format: cell-based
# [2] = target: T2, A3 (homomeric CNGA3) channels; test: as above; format: cell-based
# [3] = anti-FLAG immunoblot, intact oocytes exposed to MMPs 1 h; details: glycan lost; control: glycosylated form of A3wt subunits
EC50 [1] [µM],EC50 [2] [µM],Molecule,other: proteolytic processing [3]
15.2 ± 1.1,5.6 ± 1,Nc1nc2c(ncn2[C@@H]2O[C@@H]3COP(=O)(O)O[C@H]3[C@H]2O)c(=O)[nH]1 [cGMP],
,,CNGA3: A3N339Q (protein) parent chain: MAKINTQYSHPSRTHLKVKTSDRDLNRAENGLSRAHSSSEETSSVLQPGIAMETRGLADSGQGSFTGQGIARLSRLIFLLRRWAARHVHHQDQGPDSFPDRFRGAELKEVSSQESNAQANVGSQEPADRGRSAWPLAKCNTNTSNNTEEEKKTKKKDAIVVDPSSNLYYRWLTAIALPVFYNWYLLICRACFDELQSEYLMLWLVLDYSADVLYVLDVLVRARTGFLEQGLMVSDTNRLWQHYKTTTQFKLDVLSLVPTDLAYLKVGTNYPEVRFNRLLKFSRLFEFFDRTETRTNYPNMFRIGNLVLYILIIIHWNACIYFAISKFIGFGTDSWVYPNISIPEHGRLSRKYIYSLYWSTLTLTTIGETPPPVKDEEYLFVVVDFLVGVLIFATIVGNVGSMISNMNASRAEFQAKIDSIKQYMQFRKVTKDLETRVIRWFDYLWANKKTVDEKEVLKSLPDKLKAEIAINVHLDTLKKVRIFQDCEAGLLVELVLKLRPTVFSPGDYICKKGDIGKEMYIINEGKLAVVADDGVTQFVVLSDGSYFGEISILNIKGSKSGNRRTANIRSIGYSDLFCLSKDDLMEALTEYPEAKKALEEKGRQILMKDNLIDEELARAGADPKDLEEKVEQLGSSLDTLQTRFARLLAEYNATQMKMKQRLSQLESQVKGGGDKPLADGEVPGDATKTEDKQQ,increases
